Assays:
Type in all cases: in vivo
[1] = tested on: field corn (Zea mays L., var. Dekalb 535, CORN); experiment: Pre-emerge greenhouse test, crop damage rating; settings: 1000 g ai/ha, 14 days after application, rating scale 0-100
Excerpt: (§1) A standard greenhouse herbicide activity screening system was used to evaluate the herbicidal efficacy and crop safety of these test compounds. Six broadleaf weed species including redroot pigweed (Amaranthus retroflexus, AMARE), velvetleaf (Abutilon theophrasti, ABUTH), sicklepod (Cassia obtusifolia, CASOB), ivyleaf morningglory (Ipomoea hederacea, IPOHE), lambsquarters (Chenopodium album, CHEAL) and common ragweed (Ambrosia artemisiifolia L., AMBEL) were used as test species. Four grass weed species including green foxtail (Setaria viridis, SETVI), barnyardgrass (Echinochloa crusgalli, ECHCG), Johnsongrass (Sorghum halepense, SORHA), and large crabgrass (Digitaria sanguinalis, DIGSA) were also used. In addition, three crop species, field corn (Zea mays L., var. Dekalb 535, CORN), soybean (Glycine max L., var. Pella 86, SOY), and upland rice (Oryza sp., var.Tebonnet, RICE) were included.
(§2) All plants were grown in 10 cm square plastic pots which were filled with a sandy loam soil mix. For preemerge tests, seeds were planted one day prior to application of the test compounds. Immediately after application, test units of the pre-emerge applications were watered at the soil surface to incorporate the test materials. Subsequently, these test units were bottom-watered.
(§3) All test compounds were dissolved in acetone and applied to the test units in a volume of 187 l/ha. Test materials were applied at rates ranging from 125 g ai/ha to 1000 g ai/ha using a track sprayer equipped with a TJ8001E even flow flat fan spray nozzle. Plants were arranged on a shelf so that the top of the canopy (post-emerge) or top of the soil surface (pre-emerge) was 40-45 cm below the nozzle. Pressurized air was used to force the test solution through the nozzle as it was mechanically advanced (via electrically driven chain drive) over the top of all test plants/pots. This application simulates a typical commercial field herbicide application.
(§4) At 14 days after application of the test materials, phytotoxicity ratings were recorded. A rating scale of 0-100 was used as previously described in Research Methods in Weed Science, 2nd edition, B. Truelove, Ed., Southern Weed Science Society, Auburn University, Auburn, Ala., 1977. Briefly, “0” corresponds to no damage and “100” corresponds to complete death of all plants in the test unit. This scale was used both to determine efficacy against weed species and damage to crop species. Herbicide activity data for various compounds of this invention, which are shown by compound number in Tables 1-9, are shown in Tables 13 and 14.

[2] = tested on: upland rice (Oryza sp., var.Tebonnet, RICE); experiment: Pre-emerge greenhouse test, crop damage rating; settings: 1000 g ai/ha, 14 days after application, rating scale 0-100
Excerpt: as §1, §2, §3, §4

[3] = tested on: lambsquarters (Chenopodium album, CHEAL); experiment: Post-emerge greenhouse herbicide test, phytotoxicity rating; settings: 1000 g al/ha, 14 days after application
Excerpt: as §1, §3
(§5) In the post-emerge test, a commercial non-ionic surfactant was also included (0.25% v/v) to enhance wetting of the leaf surfaces Qf target plants at rates ranging from 63 g ai/ha to 1000 g ai/ha. For post-emerge tests, seeds were planted 8-21 days prior to the test to allow emergence and good foliage development prior to application of the test substances. At the time of the post-emerge application, plants of all species were usually at the 2-3 leaf stage of development. Post-emerge test units were always bottom-watered.
as §4

[4] = tested on: velvetleaf (Abutilon theophrasti, ABUTH); experiment: as above; settings: 1000 g al/ha, 14 days after application
Excerpt: as §1, §3, §5, §4

[5] = tested on: sicklepod (Cassia obtusifolia, CASOB); experiment: as above; settings: 1000 g al/ha, 14 days after application
Excerpt: as §1, §3, §5, §4

[6] = tested on: barnyardgrass (Echinochloa crusgalli, ECHCG); experiment: as above; settings: 1000 g al/ha, 14 days after application
Excerpt: as §1, §3, §5, §4

[7] = tested on: redroot pigweed (Amaranthus retroflexus, AMARE); experiment: as above; settings: 1000 g al/ha, 14 days after application
Excerpt: as §1, §3, §5, §4

[8] = tested on: ivyleaf morningglory (Ipomoea hederacea, IPOHE); experiment: as above; settings: 1000 g al/ha, 14 days after application
Excerpt: as §1, §3, §5, §4

[9] = tested on: large crabgrass (Digitaria sanguinalis, DIGSA); experiment: as above; settings: 1000 g al/ha, 14 days after application
Excerpt: as §1, §3, §5, §4

[10] = tested on: Johnsongrass (Sorghum halepense, SORHA); experiment: as above; settings: 1000 g al/ha, 14 days after application
Excerpt: as §1, §3, §5, §4

[11] = tested on: green foxtail (Setaria viridis, SETVI); experiment: as above; settings: 1000 g al/ha, 14 days after application
Excerpt: as §1, §3, §5, §4

[12] = tested on: soybean (Glycine max L., var. Pella 86, SOY); experiment: Pre-emerge greenhouse test, crop damage rating; settings: 1000 g ai/ha, 14 days after application, rating scale 0-100
Excerpt: as §1, §2, §3, §4

[13] = tested on: soybean (Glycine max L., var. Pella 86, SOY); experiment: Post-emerge greenhouse test, crop damage rating; settings: 1000 g al/ha, 14 days after application
Excerpt: as §1, §3, §5, §4

[14] = tested on: lambsquarters (Chenopodium album, CHEAL); experiment: Pre-emerge greenhouse herbicide test, phytotoxicity rating; settings: 1000 g ai/ha, 14 days after application, rating scale 0-100
Excerpt: as §1, §2, §3, §4

[15] = tested on: velvetleaf (Abutilon theophrasti, ABUTH); experiment: as above; settings: 1000 g ai/ha, 14 days after application, rating scale 0-100
Excerpt: as §1, §2, §3, §4

[16] = tested on: sicklepod (Cassia obtusifolia, CASOB); experiment: as above; settings: 1000 g ai/ha, 14 days after application, rating scale 0-100
Excerpt: as §1, §2, §3, §4

[17] = tested on: barnyardgrass (Echinochloa crusgalli, ECHCG); experiment: as above; settings: 1000 g ai/ha, 14 days after application, rating scale 0-100
Excerpt: as §1, §2, §3, §4

[18] = tested on: redroot pigweed (Amaranthus retroflexus, AMARE); experiment: as above; settings: 1000 g ai/ha, 14 days after application, rating scale 0-100
Excerpt: as §1, §2, §3, §4

[19] = tested on: ivyleaf morningglory (Ipomoea hederacea, IPOHE); experiment: as above; settings: 1000 g ai/ha, 14 days after application, rating scale 0-100
Excerpt: as §1, §2, §3, §4

[20] = tested on: large crabgrass (Digitaria sanguinalis, DIGSA); experiment: as above; settings: 1000 g ai/ha, 14 days after application, rating scale 0-100
Excerpt: as §1, §2, §3, §4

[21] = tested on: Johnsongrass (Sorghum halepense, SORHA); experiment: as above; settings: 1000 g ai/ha, 14 days after application, rating scale 0-100
Excerpt: as §1, §2, §3, §4

[22] = tested on: green foxtail (Setaria viridis, SETVI); experiment: as above; settings: 1000 g ai/ha, 14 days after application, rating scale 0-100
Excerpt: as §1, §2, §3, §4

[23] = tested on: field corn (Zea mays L., var. Dekalb 535, CORN); experiment: Post-emerge greenhouse test, crop damage rating; settings: 1000 g al/ha, 14 days after application
Excerpt: as §1, §3, §5, §4

[24] = tested on: upland rice (Oryza sp., var.Tebonnet, RICE); experiment: Post-emerge greenhouse test, crop damage rating; settings: 1000 g al/ha, 14 days after application
Excerpt: as §1, §3, §5, §4

SMILES	crop damage rating CORN [1]	crop damage rating RICE [2]	CHEAL phytotoxicity rating (0-100) [3]	ABUTH phytotoxicity rating (0-100) [4]	CASOB phytotoxicity rating (0-100) [5]	ECHCG phytotoxicity rating (0-100) [6]	AMARE phytotoxicity rating (0-100) [7]	IPOHE phytotoxicity rating (0-100) [8]	DIGSA phytotoxicity rating (0-100) [9]	SORHA phytotoxicity rating (0-100) [10]	SETVI phytotoxicity rating (0-100) [11]	crop damage rating SOY [12]	SOY crop damage rating (0-100) [13]	phytotoxicity rating CHEAL [14]	phytotoxicity rating ABUTH [15]	phytotoxicity rating CASOB [16]	phytotoxicity rating ECHCG [17]	phytotoxicity rating AMARE [18]	phytotoxicity rating IPOHE [19]	phytotoxicity rating DIGSA [20]	further results
O=c1cc2n(c(=O)n1-c1cc(Oc3ccccc3[N+](=O)[O-])c(Cl)cc1F)CCC2 [Compound 5-1]	5	70	80	100	10	30	30	90	0	10	20	55	40	100	100	40	95	99	70	100	phytotoxicity rating SORHA [21]: 90; phytotoxicity rating SETVI [22]: 99; CORN crop damage rating (0-100) [23]: 0; RICE crop damage rating (0-100) [24]: 10
O=c1cc2n(c(=O)n1-c1cc(Oc3ccc([N+](=O)[O-])cc3)c(Cl)cc1F)CCC2 [Compound 5-2]	0	50	40	70	0	0	20	40	0	0	10	10	15	100	100	0	50	40	50	70	phytotoxicity rating SORHA [21]: 80; phytotoxicity rating SETVI [22]: 90; CORN crop damage rating (0-100) [23]: 0; RICE crop damage rating (0-100) [24]: 10
Nc1ccc(Oc2cc(-n3c(=O)cc4n(c3=O)CCC4)c(F)cc2Cl)cc1 [Compound 5-3]	0	20	0	0	0	0	0	0	0	0	0	40	0	0	99	10	0	100	0	70	phytotoxicity rating SORHA [21]: 40; phytotoxicity rating SETVI [22]: 20; CORN crop damage rating (0-100) [23]: 0; RICE crop damage rating (0-100) [24]: 0

Reference: US6479435B1, “Diaryl ethers and processes for their preparation and herbicidal and desiccant compositions containing them” (ISK Americas Incorporated, priority 1997, dated 2002)
